Tests used:
CYP3A4 = CYP3A4 (Homo sapiens, UniProt P08684); test: P450 inhibition, midazolam hydroxylation; assay type: in vitro ADME; settings: probe midazolam
CYP1A2 = target: T1, CYP1A2 (Homo sapiens, UniProt P05177); test: P450 inhibition, phenaceten demethylation; assay type: in vitro ADME; settings: probe phenaceten
T1 sequence (P05177 1-516): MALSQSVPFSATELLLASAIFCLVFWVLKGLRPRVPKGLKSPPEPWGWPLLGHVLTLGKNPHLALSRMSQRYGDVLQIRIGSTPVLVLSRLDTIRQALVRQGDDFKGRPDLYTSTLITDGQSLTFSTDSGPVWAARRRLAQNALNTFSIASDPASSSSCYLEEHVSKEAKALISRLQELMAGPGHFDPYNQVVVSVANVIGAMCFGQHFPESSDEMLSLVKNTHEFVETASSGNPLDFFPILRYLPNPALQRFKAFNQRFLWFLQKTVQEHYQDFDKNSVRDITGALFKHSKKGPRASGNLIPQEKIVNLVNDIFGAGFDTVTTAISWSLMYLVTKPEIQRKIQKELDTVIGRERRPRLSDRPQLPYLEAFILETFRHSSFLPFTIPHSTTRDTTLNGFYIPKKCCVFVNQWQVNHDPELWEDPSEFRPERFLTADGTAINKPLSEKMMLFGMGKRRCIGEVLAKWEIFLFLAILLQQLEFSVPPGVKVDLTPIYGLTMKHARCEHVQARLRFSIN

[1] = tested on: c-jun phosphorylation in INS-1 β-pancreatic cells; assay type: cell-based, rat; settings: for decrease in potency (shift) for c-jun phosphorylation cell-based assay compared to JNK1 biochemical IC50: cell-based versus JNK1 biochemical
p38 [2] = target: T2, p38 (Homo sapiens, UniProt Q16539); test: biochemical
T2 sequence (Q16539 whole entry): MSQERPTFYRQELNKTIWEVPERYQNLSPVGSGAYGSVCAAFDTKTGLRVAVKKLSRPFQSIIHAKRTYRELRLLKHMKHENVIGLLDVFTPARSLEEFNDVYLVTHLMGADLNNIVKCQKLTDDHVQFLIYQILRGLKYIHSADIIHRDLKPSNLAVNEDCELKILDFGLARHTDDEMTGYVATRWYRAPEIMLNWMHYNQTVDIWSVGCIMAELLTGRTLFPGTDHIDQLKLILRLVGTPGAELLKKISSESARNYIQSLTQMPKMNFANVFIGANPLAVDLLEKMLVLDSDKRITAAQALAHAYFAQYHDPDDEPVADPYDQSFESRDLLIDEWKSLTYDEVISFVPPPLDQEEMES

CYP2D6 = CYP2D6 (Homo sapiens, UniProt P10635); test: P450 inhibition, bufuralol hydroxylation; assay type: in vitro ADME; settings: probe bufuralol
CYP2D6, sequence (P10635 whole entry): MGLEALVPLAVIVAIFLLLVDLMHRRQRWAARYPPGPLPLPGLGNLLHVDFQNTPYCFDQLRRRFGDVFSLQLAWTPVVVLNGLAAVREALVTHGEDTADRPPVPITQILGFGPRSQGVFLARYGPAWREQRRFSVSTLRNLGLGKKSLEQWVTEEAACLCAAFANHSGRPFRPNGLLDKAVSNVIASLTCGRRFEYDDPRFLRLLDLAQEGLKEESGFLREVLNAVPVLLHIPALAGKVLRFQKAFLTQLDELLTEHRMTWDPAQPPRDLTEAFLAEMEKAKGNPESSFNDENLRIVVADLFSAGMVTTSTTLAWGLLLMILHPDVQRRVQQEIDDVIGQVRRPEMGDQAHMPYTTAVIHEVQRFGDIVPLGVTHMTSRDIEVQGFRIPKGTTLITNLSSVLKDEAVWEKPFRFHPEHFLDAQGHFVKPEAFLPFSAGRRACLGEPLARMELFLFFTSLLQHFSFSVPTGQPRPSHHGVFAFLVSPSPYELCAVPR

JNK1 = JNK1 (Homo sapiens, UniProt P45983); test: Homogeneous time resolved fluorescence biochemical assay, JNK1
JNK1, sequence (P45983 whole entry): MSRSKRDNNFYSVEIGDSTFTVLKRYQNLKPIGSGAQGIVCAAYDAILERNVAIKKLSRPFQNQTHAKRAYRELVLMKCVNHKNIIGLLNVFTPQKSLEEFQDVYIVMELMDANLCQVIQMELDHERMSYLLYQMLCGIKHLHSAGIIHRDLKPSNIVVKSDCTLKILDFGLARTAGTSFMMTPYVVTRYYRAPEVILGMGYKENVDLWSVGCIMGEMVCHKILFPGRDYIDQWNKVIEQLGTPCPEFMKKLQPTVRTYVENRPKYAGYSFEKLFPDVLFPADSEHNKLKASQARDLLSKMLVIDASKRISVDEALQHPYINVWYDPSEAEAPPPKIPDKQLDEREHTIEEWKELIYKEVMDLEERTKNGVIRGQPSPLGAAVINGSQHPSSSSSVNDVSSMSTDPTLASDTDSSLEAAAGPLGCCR

CYP2C9 = CYP2C9 (Homo sapiens, UniProt P11712); test: P450 inhibition, tolbutamide hydroxylation; assay type: in vitro ADME; settings: probe tolbutamide
CYP2C9, sequence (P11712 whole entry): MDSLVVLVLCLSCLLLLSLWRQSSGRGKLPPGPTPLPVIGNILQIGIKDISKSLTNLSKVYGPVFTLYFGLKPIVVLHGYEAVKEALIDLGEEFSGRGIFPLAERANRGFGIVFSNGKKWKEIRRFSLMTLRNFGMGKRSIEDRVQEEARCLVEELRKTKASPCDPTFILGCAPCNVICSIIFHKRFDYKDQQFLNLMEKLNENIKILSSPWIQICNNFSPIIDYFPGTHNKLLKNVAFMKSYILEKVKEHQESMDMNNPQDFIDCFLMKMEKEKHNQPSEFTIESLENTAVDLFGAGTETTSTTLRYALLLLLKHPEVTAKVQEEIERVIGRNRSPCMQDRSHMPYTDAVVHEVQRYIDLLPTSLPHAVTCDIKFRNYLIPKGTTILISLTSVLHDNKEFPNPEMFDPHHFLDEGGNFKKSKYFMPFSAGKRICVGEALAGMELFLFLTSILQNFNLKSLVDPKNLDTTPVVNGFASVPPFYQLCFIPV

p38 [3] = target: T2, p38; settings: JNK versus p38
JNK3 = JNK3 (Homo sapiens, UniProt P53779)
JNK3, sequence (P53779 1-422 isoform P53779-2): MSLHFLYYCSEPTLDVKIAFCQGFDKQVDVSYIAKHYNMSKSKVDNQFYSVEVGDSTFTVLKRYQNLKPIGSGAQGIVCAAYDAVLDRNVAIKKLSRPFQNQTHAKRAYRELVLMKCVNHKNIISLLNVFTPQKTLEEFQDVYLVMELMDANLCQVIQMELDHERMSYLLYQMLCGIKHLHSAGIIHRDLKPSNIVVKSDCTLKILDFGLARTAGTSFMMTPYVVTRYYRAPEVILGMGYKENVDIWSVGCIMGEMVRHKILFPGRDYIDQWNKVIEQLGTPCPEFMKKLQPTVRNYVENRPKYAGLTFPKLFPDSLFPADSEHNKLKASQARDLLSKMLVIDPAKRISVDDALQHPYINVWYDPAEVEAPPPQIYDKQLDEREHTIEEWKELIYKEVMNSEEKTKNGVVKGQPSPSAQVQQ

[4] = tested on: transient global ischemia; settings: gerbils; i.p. doses ≥ 60 mg/kg; cited from earlier work
[5] = tested on: inteleukine-2 (IL-2) release in Jurkat cells; settings: 10 μM compound; cited from earlier work
[6] = Microsomal stability, rat; assay type: in vitro ADME; settings: 2 mg/mL rat liver microsomes, 1 μM compound
[7] = Microsomal stability, mouse; assay type: in vitro ADME; settings: 2 mg/mL mouse liver microsomes, 1 μM compound
[8] = Microsomal stability, human; assay type: in vitro ADME; settings: 2 mg/mL human liver microsomes, 1 μM compound
MAPK3K1-4 = test: Kinase counterscreen, MAPK3K1-4; assay type: biochemical; settings: 3 μM
MLK1-3 = test: Kinase counterscreen, MLK1-3; assay type: biochemical; settings: 3 μM
MKK4 = target: T3, MKK4 (Homo sapiens, UniProt P45985); test: Kinase counterscreen, MKK4; assay type: biochemical; settings: 3 μM
T3 sequence (P45985 1-399): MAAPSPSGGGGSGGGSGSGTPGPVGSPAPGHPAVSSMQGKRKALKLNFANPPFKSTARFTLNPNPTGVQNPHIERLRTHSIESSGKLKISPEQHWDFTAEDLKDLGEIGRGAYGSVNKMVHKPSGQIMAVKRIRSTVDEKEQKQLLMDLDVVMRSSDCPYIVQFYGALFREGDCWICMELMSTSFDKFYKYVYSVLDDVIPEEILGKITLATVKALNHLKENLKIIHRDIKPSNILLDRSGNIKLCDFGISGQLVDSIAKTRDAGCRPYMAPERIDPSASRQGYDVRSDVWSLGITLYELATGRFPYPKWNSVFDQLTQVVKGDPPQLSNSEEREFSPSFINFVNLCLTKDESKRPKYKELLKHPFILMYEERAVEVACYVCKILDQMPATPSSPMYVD

ASK-1 = target: T4, ASK-1 (Homo sapiens, UniProt Q99683); test: Kinase counterscreen, ASK-1; assay type: biochemical; settings: 3 μM
T4 sequence (Q99683 1-1374): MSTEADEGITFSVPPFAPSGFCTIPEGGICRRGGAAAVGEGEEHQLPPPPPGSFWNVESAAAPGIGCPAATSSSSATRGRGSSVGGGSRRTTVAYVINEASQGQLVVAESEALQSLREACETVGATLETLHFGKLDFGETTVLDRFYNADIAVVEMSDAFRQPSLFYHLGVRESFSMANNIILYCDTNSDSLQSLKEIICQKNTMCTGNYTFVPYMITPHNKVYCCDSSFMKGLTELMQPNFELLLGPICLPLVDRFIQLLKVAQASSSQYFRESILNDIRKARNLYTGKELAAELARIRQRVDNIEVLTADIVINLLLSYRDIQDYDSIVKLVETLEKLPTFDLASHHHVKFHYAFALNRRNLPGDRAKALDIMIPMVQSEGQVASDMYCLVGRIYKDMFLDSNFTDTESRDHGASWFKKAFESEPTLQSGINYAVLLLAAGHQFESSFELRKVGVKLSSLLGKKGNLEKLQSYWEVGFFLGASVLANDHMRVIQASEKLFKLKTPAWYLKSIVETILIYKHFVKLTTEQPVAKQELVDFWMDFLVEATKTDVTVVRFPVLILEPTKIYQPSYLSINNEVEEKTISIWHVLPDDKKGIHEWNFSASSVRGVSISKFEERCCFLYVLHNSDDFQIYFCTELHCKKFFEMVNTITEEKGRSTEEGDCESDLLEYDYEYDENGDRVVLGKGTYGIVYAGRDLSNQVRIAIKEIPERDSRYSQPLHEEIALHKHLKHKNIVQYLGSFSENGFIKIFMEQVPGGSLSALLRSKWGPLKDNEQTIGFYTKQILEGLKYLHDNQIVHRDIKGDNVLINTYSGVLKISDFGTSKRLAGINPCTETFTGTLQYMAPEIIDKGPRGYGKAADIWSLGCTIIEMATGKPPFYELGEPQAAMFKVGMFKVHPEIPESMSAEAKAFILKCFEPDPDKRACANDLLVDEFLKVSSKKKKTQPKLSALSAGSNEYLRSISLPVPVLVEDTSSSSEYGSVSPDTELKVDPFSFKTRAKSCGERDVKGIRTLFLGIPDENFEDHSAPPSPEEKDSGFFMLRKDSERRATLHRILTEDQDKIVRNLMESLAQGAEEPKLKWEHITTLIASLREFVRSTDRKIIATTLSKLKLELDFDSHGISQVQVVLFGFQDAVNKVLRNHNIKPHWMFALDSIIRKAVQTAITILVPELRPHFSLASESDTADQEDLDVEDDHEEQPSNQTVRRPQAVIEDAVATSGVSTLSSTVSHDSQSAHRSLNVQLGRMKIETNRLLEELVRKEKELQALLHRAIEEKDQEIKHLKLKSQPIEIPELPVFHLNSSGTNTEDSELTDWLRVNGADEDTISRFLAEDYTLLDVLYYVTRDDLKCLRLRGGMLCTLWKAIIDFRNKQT

panel of 400 kinases = test: Broad counterscreening against a panel of 400 kinases; assay type: biochemical; settings: 3 μM; out of 400 kinases
MKK7 = target: T5, MKK7 (Homo sapiens, UniProt O14733); test: Kinase counterscreen, MKK7; assay type: biochemical; settings: 3 μM
T5 sequence (O14733 1-419): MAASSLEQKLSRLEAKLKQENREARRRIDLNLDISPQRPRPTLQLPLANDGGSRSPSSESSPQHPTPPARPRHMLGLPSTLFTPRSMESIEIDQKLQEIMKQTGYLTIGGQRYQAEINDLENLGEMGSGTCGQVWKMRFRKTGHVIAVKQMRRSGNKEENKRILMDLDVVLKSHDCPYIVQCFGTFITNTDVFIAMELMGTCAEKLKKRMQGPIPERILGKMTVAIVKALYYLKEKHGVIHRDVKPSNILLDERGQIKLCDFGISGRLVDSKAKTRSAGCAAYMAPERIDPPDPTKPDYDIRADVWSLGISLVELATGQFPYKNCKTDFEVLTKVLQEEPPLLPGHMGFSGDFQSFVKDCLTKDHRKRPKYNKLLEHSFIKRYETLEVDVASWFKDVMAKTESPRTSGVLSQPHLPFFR

CYP3A4, sequence (P08684 whole entry): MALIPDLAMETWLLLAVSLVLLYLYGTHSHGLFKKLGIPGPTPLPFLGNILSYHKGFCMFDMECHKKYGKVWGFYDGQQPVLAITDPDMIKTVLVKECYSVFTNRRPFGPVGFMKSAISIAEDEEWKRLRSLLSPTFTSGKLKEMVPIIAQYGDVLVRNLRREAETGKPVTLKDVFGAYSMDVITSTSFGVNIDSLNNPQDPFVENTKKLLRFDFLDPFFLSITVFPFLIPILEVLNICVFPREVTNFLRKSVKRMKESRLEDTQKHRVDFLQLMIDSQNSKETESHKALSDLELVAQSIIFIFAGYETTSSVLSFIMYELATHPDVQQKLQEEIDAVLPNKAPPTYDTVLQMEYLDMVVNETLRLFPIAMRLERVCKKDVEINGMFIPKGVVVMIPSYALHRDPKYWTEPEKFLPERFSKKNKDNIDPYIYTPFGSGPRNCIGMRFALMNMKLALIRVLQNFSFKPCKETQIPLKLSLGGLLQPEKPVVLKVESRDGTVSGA

For Cn1nnc(-c2ccc(Nc3nccc(-c4cc(C#N)cc(N5CCOCC5)c4)n3)cc2)n1 [Compound 9h, 3-(2-(4-(2-methyl-2H-tetrazol-5-yl)phenylamino)pyrimidin-4-yl)-5-morpholinobenzonitrile], the inhibition at 15 min, 10 µM (CYP3A4) was ≤ 15%, the inhibition at 15 min, 10 µM (CYP1A2) was ≤ 15% and the “difference in IC50 for c-jun phosphorylation compared to 9g” value ([1]; compared to 9g) was “less than 2 fold”. For the same compound, the IC50 (p38 [2]) was > 20 µM, the inhibition at 15 min, 10 µM (CYP2D6) was ≤ 15% and the “difference in IC50 for JNK1 compared to 9g” value (JNK1; compared to 9g) was “less than 2 fold”. For the same compound, the inhibition at 15 min, 10 µM (CYP2C9) was ≤ 15%.
With CS(=O)(=O)Nc1ccc(-c2ccnc(Nc3ccc(S(N)(=O)=O)cc3)n2)cc1 [Compound 9d] the IC50 (p38 [2]) was > 20 µM.
For NC(=O)c1ccc(Nc2nccc(-c3ccccc3)n2)cc1 [Compound 9a], the IC50 (p38 [2]) was > 20 µM.
For N#Cc1cc(-c2ccnc(Nc3ccc(-n4cnc(-c5ccccn5)n4)cc3)n2)cc(N2CCOCC2)c1 [Compound 9j, 3-Morpholino-5-(2-(4-(3-(pyridin-2-yl)-1H-1,2,4-triazol-1-yl)phenylamino)pyrimidin-4-yl)benzonitrile], the inhibition at 15 min, 10 µM (CYP3A4) was ≤ 33%, the inhibition at 15 min, 10 µM (CYP1A2) was ≤ 33% and the IC50 (p38 [2]) was > 20 µM. The inhibition at 15 min, 10 µM (CYP2D6) was ≤ 33% and the inhibition at 15 min, 10 µM (CYP2C9) was ≤ 33%.
In the case of Cc1ncn(-c2ccc(Nc3nccc(-c4cccc(N5CCOCC5)c4)n3)cc2)n1 [Compound 9f], the inhibition at 15 min, 10 µM (CYP3A4) is reported as < 50%, the inhibition at 15 min, 10 µM (CYP1A2) is reported as < 50% and the IC50 (p38 [2]) is reported as > 20 µM. For the same compound, the inhibition at 15 min, 10 µM (CYP2D6) was < 50% and the inhibition at 15 min, 10 µM (CYP2C9) was < 50%.
With Cc1ncn(-c2ccc(Nc3nccc(-c4cc(C#N)cc(N5CCOCC5)c4)n3)cc2)n1 [Compound 9g] the “selectivity over p38” value (p38 [3]) was “greater than 135 fold”, the “decrease in potency (shift) for c-jun phosphorylation cell-based assay compared to JNK1 biochemical IC50” value (shortened to “decrease in potency (shift)”) [1] was “essentially equipotent” and the IC50 (p38 [2]) was > 20 µM. For the same compound, the “increase in potency for JNK3 inhibition compared to 9f” value (JNK3; compared to 9f) was “approximately 5 fold” and the “increase in potency for JNK1 inhibition compared to 9f” value (JNK1; compared to 9f) was “approximately 5 fold”.
In the case of “1,3-benzothiazol-2-yl (2-[[2-(3-pyridinyl) ethyl] amino]-4 pyrimidinyl) acetonitrile [AS601245]”, the “efficacy in transient global ischemia models” value [4] is listed as “efficacious” and the “inhibition of IL-2 release in Jurkat cells” value [5] is listed as 90%.
In the case of CN1CCN(c2ncn(-c3ccc(Nc4nccc(-c5cc(F)cc(N6CCOCC6)c5)n4)cc3)n2)CC1 [Compound 9k], the “decrease in potency (shift)” value [1] is reported as “essentially equipotent” and the IC50 (p38 [2]) is reported as > 20 µM.
For CS(=O)(=O)Nc1ccc(-c2ccnc(Nc3ccc(-n4ccnn4)cc3)n2)cc1 [Compound 9e], the “decrease in potency (shift)” value [1] was 13 fold, the IC50 (p38 [2]) was > 20 µM and the “Microsomal Stability (half life), rat” value [6] was “poor microsomal stability”. For the same compound, the “fold more potent versus JNK3 than compound 9c” value (JNK3; compared to 9c) was 91 fold, the “Microsomal Stability (half life), mouse” value [7] was “poor microsomal stability” and the “Microsomal Stability (half life), human” value [8] was “poor microsomal stability”.
In the case of Fc1cc(-c2cc[nH]/c(=N/c3ccc(-n4cnc(N5CCOCC5)n4)cc3)n2)cc(N2CCOCC2)c1 [Compound 9l], the “inhibition of MAPK3K1-4” value (MAPK3K1-4) is reported as “no inhibition”, the inhibition at 15 min, 10 µM (CYP3A4) is reported as 70 to 90% and the “inhibition of MLK1-3” value (MLK1-3) is reported as “no inhibition”. The “inhibition of MKK4” value (MKK4) was “no inhibition”, the inhibition at 15 min, 10 µM (CYP1A2) was 70 to 90% and the IC50 ([1]; read-out: cell-based IC50, inhibition of c-jun phosphorylation) was ~0.05 µM. For the same compound, the IC50 (p38 [2]) was > 20 µM, the “inhibition of ASK-1” value (ASK-1) was “no inhibition” and the “number of kinases showing > 25% inhibition” value (panel of 400 kinases) was 28. For the same compound, the “number of kinases showing greater than 70% biochemical inhibition” value (panel of 400 kinases) was “eleven”, the “inhibition of MKK7” value (MKK7) was “no inhibition” and the inhibition at 15 min, 10 µM (CYP2C9) was 70 to 90%.
For c1cc(-c2ccnc(Nc3ccc(-n4ccnn4)cc3)n2)cc(N2CCOCC2)c1 [Compound 9c], the IC50 (p38 [2]) was > 20 µM.
In the case of c1cncc(-c2ncn(-c3ccc(Nc4nccc(-c5cccc(N6CCOCC6)c5)n4)cc3)n2)c1 [Compound 9i, 4-(3-Morpholinophenyl)-N-(4-(3-(pyridin-3-yl)-1H-1,2,4-triazol-1-yl)phenyl)pyrimidin-2-amine], the IC50 (p38 [2]) is reported as > 20 µM.
